Results on 15 compounds are retold here after patent US10538555B2, “Macrocyclic inhibitors of the PD-1/PD-L1 and CD80(B7-1)/PD-L1 protein/protein interactions” (BRISTOL-MYERS SQUIBB COMPANY, priority 2014, dated 2020).

Where a SMILES comes first, the peptide text is derived from it. Bridges are numbered along the chain shown (N, C = ends). [ ]: non-standard residue; d: D form. ξ: configuration not given here. Trp(1-CH2COOH) = N[C@@H](Cc1cn(CC(=O)O)c2ccccc12)C(=O)O; Phe(3,4,5-F3) = N[C@@H](Cc1cc(F)c(F)c(F)c1)C(=O)O; NMePhe(4-F) = CN[C@@H](Cc1ccc(F)cc1)C(=O)O; Phe(4-F) = N[C@@H](Cc1ccc(F)cc1)C(=O)O; d(cisHyp) = O=C(O)[C@H]1C[C@@H](O)CN1; NMeIle(3ξ) = CCC(C)[C@H](NC)C(=O)O; Hyp = O=C(O)[C@@H]1C[C@@H](O)CN1; NMeF = CN[C@@H](Cc1ccccc1)C(=O)O; dHyp = O=C(O)[C@H]1C[C@H](O)CN1; NMehSer = CN[C@@H](CCO)C(=O)O; NMeNle = CCCC[C@H](NC)C(=O)O; Pip = O=C(O)[C@@H]1CCCCN1; dPip = O=C(O)[C@H]1CCCCN1; hSer = N[C@@H](CCO)C(=O)O; NMeA = CN[C@@H](C)C(=O)O; Orn = NCCC[C@H](N)C(=O)O; Dab = NCC[C@H](N)C(=O)O; Dap = NC[C@H](N)C(=O)O; ξC = NC(CS)C(=O)O

For this experiment, the target named is T1, Human PD-L1/PD-1 (Homo sapiens, UniProt Q9NZQ7).
T1 construct: TVMV protease cleavage site (C); made in house; host or cells: HEK293T cells
T1 sequence (Q9NZQ7 with tags, fused parts or gaps): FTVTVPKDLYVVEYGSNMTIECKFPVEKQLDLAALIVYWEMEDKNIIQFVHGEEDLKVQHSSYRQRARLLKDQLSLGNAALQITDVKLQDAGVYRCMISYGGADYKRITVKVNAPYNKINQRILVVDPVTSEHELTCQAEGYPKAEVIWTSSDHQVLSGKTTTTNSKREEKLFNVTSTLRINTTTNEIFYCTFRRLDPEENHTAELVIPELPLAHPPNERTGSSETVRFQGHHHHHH
As to the kind of experiment: HTRF Human PD-L1/PD-1 binding assay (PD-1-Ig/PD-L1-His). The following applies: PD-L1-His 10 nM, PD-1-Ig 20 nM; class symbol; read-out: HTRF Human PD-L1/PD-1 Binding Assay IC50 Range. The essentials: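 Compound preincubated 15 min with PD-L1-His (10 nM final), then PD-1-Ig (20 nM final) added for 15 min in dPBS with 0.1% BSA and 0.05% Tween-20. Detection by Eu-cryptate anti-Ig (1 nM) and APC anti-His (20 nM) after 30 min; 665/620 nm HTRF ratio. Proteins expressed in HEK293T.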
On to `CCCC[C@H]1C(=O)N(C)[C@@H](CCCC)C(=O)N[C@@H](C)C(=O)NC(C(=O)NCC(N)=O)CSCC(=O)N[C@@H](Cc2ccc(O)cc2)C(=O)N(C)[C@@H](C)C(=O)N[C@@H](CC(N)=O)C(=O)N2CCC[C@H]2C(=O)N[C@@H](CC(N)=O)C(=O)N[C@@H](CC(C)C)C(=O)N2C[C@H](O)C[C@H]2C(=O)N[C@@H](Cc2c[nH]c3ccccc23)C(=O)N[C@@H](CO)C(=O)N[C@@H](Cc2c[nH]c3ccccc23)C(=O)N1C` (stereo partly drawn) [Example 9134], for which the IC50 lay within 1 to 9.9 nM. The result for `CCCC[C@H]1C(=O)N2C[C@@H](O)C[C@@H]2C(=O)N[C@@H](CC(=O)O)C(=O)N[C@@H](C(C)C)C(=O)N(C)[C@@H](Cc2ccccc2)C(=O)N[C@@H](Cc2ccc(O)cc2)C(=O)N2C[C@H](O)C[C@@H]2C(=O)N[C@@H](Cc2c[nH]c3ccccc23)C(=O)N[C@@H](Cc2ccc(O)cc2)C(=O)N[C@@H](CCCN)C(=O)N[C@H](C(=O)NCC(N)=O)CSCC(=O)N[C@@H](Cc2cc(F)c(F)c(F)c2)C(=O)N(C)[C@@H](Cc2ccccc2)C(=O)N1C` [Example 9368] ({CH2CO}-[Phe(3,4,5-F3)][NMeF][NMeNle][dHyp]DV[NMeF]Y[d(cisHyp)]WY[Orn]CG-NH2; thioether N-13) reads 1 to 9.9 nM; that for `CCCC[C@H]1C(=O)N2CCC[C@@H]2C(=O)N[C@@H](CC(=O)O)C(=O)N[C@@H](C(C)C)C(=O)N(C)[C@@H](CCOC)C(=O)N[C@@H](Cc2ccc(O)cc2)C(=O)N2CCC[C@@H]2C(=O)N[C@@H](Cc2c[nH]c3ccccc23)C(=O)N[C@@H](Cc2ccc(O)cc2)C(=O)N[C@@H](CCCN)C(=O)N[C@H](C(=O)NCC(N)=O)CSCC(=O)N[C@@H](Cc2ccc(F)cc2)C(=O)N(C)[C@@H](Cc2ccccc2)C(=O)N1C` [Example 9221] ({CH2CO}-[Phe(4-F)][NMeF][NMeNle][dP]DV[NMehSer](Me)Y[dP]WY[Orn]CG-NH2; thioether N-13), 100 to 990 nM; that for `CCCC[C@H]1C(=O)N2CCC[C@@H]2C(=O)N[C@@H](CCC(=O)O)C(=O)N[C@@H](C(C)C)C(=O)N(C)[C@@H](Cc2ccccc2)C(=O)N[C@@H](CC(=O)O)C(=O)N2CCCC[C@@H]2C(=O)N[C@@H](Cc2c[nH]c3ccccc23)C(=O)N[C@@H](Cc2ccc(O)cc2)C(=O)N[C@@H](CC(C)C)C(=O)N[C@H](C(=O)NCC(N)=O)CSCC(=O)N[C@@H](Cc2cc(F)c(F)c(F)c2)C(=O)N(C)[C@@H](Cc2ccc(F)cc2)C(=O)N1C` [Example 10580] ({CH2CO}-[Phe(3,4,5-F3)][NMePhe(4-F)][NMeNle][dP]EV[NMeF]D[dPip]WYLCG-NH2; thioether N-13), 1 to 9.9 nM. The result for `CCCC[C@H]1C(=O)N2CCC[C@@H]2C(=O)N[C@@H](CC(=O)O)C(=O)N[C@@H](C(C)C)C(=O)N(C)[C@@H](C(C)CC)C(=O)N[C@@H](Cc2ccc(O)cc2)C(=O)N2CCC[C@@H]2C(=O)N[C@@H](Cc2c[nH]c3ccccc23)C(=O)N[C@@H](Cc2ccc(O)cc2)C(=O)N[C@@H](CC(C)C)C(=O)N[C@H](C(=O)NCC(N)=O)CSCC(=O)N[C@@H](Cc2ccc(F)cc2)C(=O)N(C)[C@@H](Cc2ccccc2)C(=O)N1C` (stereo partly drawn) [Example 9257] ({CH2CO}-[Phe(4-F)][NMeF][NMeNle][dP]DV[NMeIle(3ξ)]Y[dP]WYLCG-NH2; thioether N-13) reads 1000 to 10000 nM; that for `CCCC[C@H]1C(=O)N(C)[C@@H](CCCC)C(=O)N[C@@H](CCC(=O)O)C(=O)N[C@H](C(=O)NCC(N)=O)CSCC(=O)N[C@@H](Cc2ccc(OC)cc2)C(=O)N(C)[C@@H](C)C(=O)N[C@@H](CC(N)=O)C(=O)N2CCC[C@H]2C(=O)N[C@@H](CN)C(=O)N[C@@H](CCC(=O)O)C(=O)N2C[C@H](O)C[C@H]2C(=O)N[C@@H](Cc2c[nH]c3ccccc23)C(=O)N[C@@H](CC(=O)O)C(=O)N[C@@H](Cc2c[nH]c3ccccc23)C(=O)N1C` [Example 7117] ({CH2CO}-Y(Me)[NMeA]NP[Dap]E[Hyp]WDW[NMeNle][NMeNle]ECG-NH2; thioether N-14), 10 to 99.9 nM.

As for `CCCC[C@H]1C(=O)N(C)[C@@H](CCCC)C(=O)N[C@@H](CC(=O)O)C(=O)N[C@H](C(=O)NCC(N)=O)CSCC(=O)N[C@@H](Cc2ccc(O)cc2)C(=O)N2CCCC[C@H]2C(=O)N[C@@H](CC(=O)O)C(=O)N2CCC[C@H]2C(=O)N[C@@H](Cc2cnc[nH]2)C(=O)N[C@@H](CCCCN)C(=O)N2C[C@H](O)C[C@H]2C(=O)N[C@@H](Cc2c[nH]c3ccccc23)C(=O)N[C@@H](CCCCN)C(=O)N[C@@H](Cc2cn(CC(=O)O)c3ccccc23)C(=O)N1C` [Example 1302] ({CH2CO}-Y[Pip]DPHK[Hyp]WK[Trp(1-CH2COOH)][NMeNle][NMeNle]DCG-NH2; thioether N-14), the IC50 is 1 to 9.9 nM. The same measure for `CCCC[C@H]1C(=O)N(C)[C@@H](CCCC)C(=O)N[C@@H](CCCNC(=N)N)C(=O)N[C@H](C(=O)NCC(N)=O)CSCC(=O)N[C@@H](Cc2ccc(O)cc2)C(=O)N(C)[C@@H](C)C(=O)N[C@@H](CC(N)=O)C(=O)N2CCC[C@H]2C(=O)N[C@@H](Cc2cnc[nH]2)C(=O)N[C@@H](CO)C(=O)N2C[C@H](O)C[C@H]2C(=O)N[C@@H](Cc2c[nH]c3ccccc23)C(=O)N[C@@H](CO)C(=O)N[C@@H](Cc2cn(CC(=O)O)c3ccccc23)C(=O)N1C` [Example 6202] ({CH2CO}-Y[NMeA]NPHS[Hyp]WS[Trp(1-CH2COOH)][NMeNle][NMeNle]RCG-NH2; thioether N-14): 10 to 99.9 nM. The same measure for `CCCC[C@H]1C(=O)N2C[C@H](O)C[C@@H]2C(=O)N[C@@H](CC(=O)O)C(=O)N[C@@H](C(C)C)C(=O)N(C)[C@@H](Cc2ccccc2)C(=O)N[C@@H](CCC(=O)O)C(=O)N2C[C@H](O)C[C@@H]2C(=O)N[C@@H](Cc2c[nH]c3ccccc23)C(=O)N[C@@H](Cc2ccc(O)cc2)C(=O)N[C@@H](CCCN)C(=O)N[C@H](C(=O)NCC(N)=O)CSCC(=O)N[C@@H](Cc2cc(F)c(F)c(F)c2)C(=O)N(C)[C@@H](Cc2ccccc2)C(=O)N1C` [Example 9332] ({CH2CO}-[Phe(3,4,5-F3)][NMeF][NMeNle][d(cisHyp)]DV[NMeF]E[d(cisHyp)]WY[Orn]CG-NH2; thioether N-13): 10 to 99.9 nM; for `CCCC[C@H]1C(=O)N(C)[C@@H](CCCC)C(=O)N[C@@H](CC(C)C)C(=O)N[C@H](C(=O)NCC(N)=O)CSCC(=O)N[C@@H](Cc2ccc(O)cc2)C(=O)N2CCCC[C@H]2C(=O)N[C@@H](CC(N)=O)C(=O)N2CCC[C@H]2C(=O)N[C@@H](Cc2cnc[nH]2)C(=O)N[C@@H](CCC(N)=O)C(=O)N2C[C@H](O)C[C@H]2C(=O)N[C@@H](Cc2c[nH]c3ccccc23)C(=O)N[C@@H](CO)C(=O)N[C@@H](Cc2c[nH]c3ccccc23)C(=O)N1C` [Example 1273] ({CH2CO}-Y[Pip]NPHQ[Hyp]WSW[NMeNle][NMeNle]LCG-NH2; thioether N-14): 1 to 9.9 nM.

As for `CCCC[C@H]1C(=O)N(C)[C@@H](CCCC)C(=O)N[C@@H](CCC(=O)O)C(=O)N[C@H](C(=O)NCC(N)=O)CSCC(=O)N[C@@H](Cc2ccc(O)cc2)C(=O)N(C)[C@@H](C)C(=O)N[C@@H](CC(=O)O)C(=O)N2CCC[C@H]2C(=O)N[C@@H](CN)C(=O)N[C@@H](CCC(N)=O)C(=O)N2C[C@H](O)C[C@H]2C(=O)N[C@@H](Cc2c[nH]c3ccccc23)C(=O)N[C@@H](CO)C(=O)N[C@@H](Cc2c[nH]c3ccccc23)C(=O)N1C` [Example 5246] ({CH2CO}-Y[NMeA]DP[Dap]Q[Hyp]WSW[NMeNle][NMeNle]ECG-NH2; thioether N-14), the IC50 lay in the range of 1 to 9.9 nM.

`CCCC[C@H]1C(=O)N2C[C@H](O)C[C@@H]2C(=O)N[C@@H](CC(=O)O)C(=O)N[C@@H](C(C)C)C(=O)N(C)[C@@H](Cc2ccccc2)C(=O)N[C@@H](CCC(=O)O)C(=O)N2C[C@H](O)C[C@@H]2C(=O)N[C@@H](Cc2c[nH]c3ccccc23)C(=O)N[C@@H](Cc2ccc(O)cc2)C(=O)N[C@@H](CC(N)=O)C(=O)N[C@H](C(=O)NCC(N)=O)CSCC(=O)N[C@@H](Cc2cc(F)c(F)c(F)c2)C(=O)N(C)[C@@H](Cc2ccccc2)C(=O)N1C` [Example 9338] ({CH2CO}-[Phe(3,4,5-F3)][NMeF][NMeNle][d(cisHyp)]DV[NMeF]E[d(cisHyp)]WYNCG-NH2; thioether N-13): the IC50 lay within 1 to 9.9 nM. The result for `CCCC[C@H]1C(=O)N(C)[C@@H](CCCC)C(=O)N[C@@H](CCCNC(=N)N)C(=O)NC(C(=O)NCC(N)=O)CSCC(=O)N[C@@H](Cc2ccc(O)cc2)C(=O)N(C)[C@@H](C)C(=O)N[C@@H](CC(N)=O)C(=O)N2CCC[C@H]2C(=O)N[C@@H](CO)C(=O)N[C@@H](CCO)C(=O)N2CCC[C@H]2C(=O)N[C@@H](Cc2c[nH]c3ccccc23)C(=O)N[C@@H](CO)C(=O)N[C@@H](Cc2c[nH]c3ccccc23)C(=O)N1C` (stereo partly drawn) [Example 10036] ({CH2CO}-Y[NMeA]NPS[hSer]PWSW[NMeNle][NMeNle]R[ξC]G-NH2; thioether N-14) reads 1 to 9.9 nM. The same measure for `CCCC[C@H]1C(=O)N(C)[C@@H](CCCC)C(=O)N[C@@H](CCC(=O)O)C(=O)N[C@H](C(=O)NCC(N)=O)CSCC(=O)N[C@@H](Cc2ccc(O)cc2)C(=O)N(C)[C@@H](C)C(=O)N[C@@H](CC(N)=O)C(=O)N2CCC[C@H]2C(=O)N[C@@H](CN)C(=O)N[C@@H](CCC(=O)O)C(=O)N2C[C@H](O)C[C@H]2C(=O)N[C@@H](Cc2c[nH]c3ccccc23)C(=O)N[C@@H](CCN)C(=O)N[C@@H](Cc2c[nH]c3ccccc23)C(=O)N1C` [Example 5207] ({CH2CO}-Y[NMeA]NP[Dap]E[Hyp]W[Dab]W[NMeNle][NMeNle]ECG-NH2; thioether N-14): 10 to 99.9 nM; for `CCCC[C@H]1C(=O)N2CCC[C@@H]2C(=O)N[C@@H](CC(=O)O)C(=O)N[C@@H](C(C)C)C(=O)N(C)[C@@H](Cc2ccccc2)C(=O)N[C@@H](Cc2ccc(O)cc2)C(=O)N2CCC[C@@H]2C(=O)N[C@@H](Cc2c[nH]c3ccccc23)C(=O)N[C@@H](Cc2ccc(O)cc2)C(=O)N[C@@H](CCO)C(=O)N[C@H](C(=O)NCC(N)=O)CSCC(=O)N[C@@H](Cc2cc(F)c(F)c(F)c2)C(=O)N(C)[C@@H](Cc2ccccc2)C(=O)N1C` [Example 10095] ({CH2CO}-[Phe(3,4,5-F3)][NMeF][NMeNle][dP]DV[NMeF]Y[dP]WY[hSer]CG-NH2; thioether N-13): 1 to 9.9 nM.
